Laboratory results as given in ChEMBL document CHEMBL5154805, “From tryptophan-based amides to tertiary amines: Optimization of a butyrylcholinesterase inhibitor series” (Eur J Med Chem, 2022).

What was measured:
[1] = target: T1, Acetylcholinesterase (Homo sapiens, UniProt P22303); test: Inhibition of recombinant human AChE assessed as residual activity at 3 uM using acetylthiocholine iodide as substrate preincubated for 1 to 30 mins followed by substrate addition by Ellman's method relative to control; conditions: time 1-30 min
[2] = target: T2, Cholinesterase (Homo sapiens, UniProt P06276)
Description: Inhibition of recombinant human BChE using butyrylthiocholine iodide as substrate preincubated for 1 to 30 mins followed by substrate addition by Ellman's method

[3] = target: T1, Acetylcholinesterase; test: Inhibition of recombinant human AChE assessed as residual activity at 100 uM using acetylthiocholine iodide as substrate preincubated for 1 to 30 mins followed by substrate addition by Ellman's method relative to control; conditions: time 1-30 min
[4] = target: T3, Acetylcholinesterase (Mus musculus, UniProt P21836); test: Inhibition of mouse recombinant AChE assessed as reduction in cholinesterase activity using acetylthiocholine iodide as substrate preincubated for 1 to 30 mins followed by substrate addition by Ellman's method
T3 sequence (P21836 whole entry): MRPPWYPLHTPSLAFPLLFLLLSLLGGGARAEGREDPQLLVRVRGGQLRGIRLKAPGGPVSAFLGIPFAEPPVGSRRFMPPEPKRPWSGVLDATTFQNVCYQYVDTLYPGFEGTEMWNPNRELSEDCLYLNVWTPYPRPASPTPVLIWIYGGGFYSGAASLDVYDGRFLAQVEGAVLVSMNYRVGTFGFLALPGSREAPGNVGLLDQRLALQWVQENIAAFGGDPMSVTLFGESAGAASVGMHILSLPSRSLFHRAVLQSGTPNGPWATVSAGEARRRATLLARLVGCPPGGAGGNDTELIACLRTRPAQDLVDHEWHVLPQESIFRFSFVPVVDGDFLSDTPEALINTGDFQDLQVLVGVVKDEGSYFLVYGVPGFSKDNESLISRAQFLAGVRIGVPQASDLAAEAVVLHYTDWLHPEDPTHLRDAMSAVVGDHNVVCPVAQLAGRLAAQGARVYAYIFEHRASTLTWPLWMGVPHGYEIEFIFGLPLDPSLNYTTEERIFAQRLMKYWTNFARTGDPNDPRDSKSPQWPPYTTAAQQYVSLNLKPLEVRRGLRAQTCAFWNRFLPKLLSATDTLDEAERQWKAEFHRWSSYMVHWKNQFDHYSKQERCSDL

[5] = target: Cholinesterases; ACHE & BCHE (Homo sapiens) (UniProt P06276+P22303); test: Selectivity ratio of IC50 for recombinant human AChE to IC50 for recombinant human BChE; assay type: protein assay
[6] = target: T2, Cholinesterase; remark: listed apart in the source
Description: Binding affinity to human recombinant BChE assessed as decarbamoylation rate by measuring half life

[7] = target: T1, Acetylcholinesterase; test: Inhibition of recombinant human AChE using acetylthiocholine iodide as substrate preincubated for 1 to 30 mins followed by substrate addition by Ellman's method

T1 sequence (P22303 whole entry): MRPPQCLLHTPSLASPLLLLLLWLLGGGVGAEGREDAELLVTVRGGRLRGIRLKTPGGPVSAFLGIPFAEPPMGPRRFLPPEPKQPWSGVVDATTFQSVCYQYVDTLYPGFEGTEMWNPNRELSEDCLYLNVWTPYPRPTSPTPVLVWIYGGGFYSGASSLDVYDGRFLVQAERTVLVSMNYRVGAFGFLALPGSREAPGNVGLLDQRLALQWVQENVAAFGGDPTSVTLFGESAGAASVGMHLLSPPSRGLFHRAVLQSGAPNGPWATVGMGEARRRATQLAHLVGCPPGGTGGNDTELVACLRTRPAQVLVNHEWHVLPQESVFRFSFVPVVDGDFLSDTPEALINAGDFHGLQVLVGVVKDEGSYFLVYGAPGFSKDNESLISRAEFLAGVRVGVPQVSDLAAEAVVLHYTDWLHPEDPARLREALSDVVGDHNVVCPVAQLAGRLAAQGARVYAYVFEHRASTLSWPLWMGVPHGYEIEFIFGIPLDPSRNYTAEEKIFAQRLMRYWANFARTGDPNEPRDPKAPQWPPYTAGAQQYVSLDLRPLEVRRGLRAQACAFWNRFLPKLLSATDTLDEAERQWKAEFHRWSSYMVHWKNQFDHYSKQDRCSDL
T2 sequence (P06276 whole entry): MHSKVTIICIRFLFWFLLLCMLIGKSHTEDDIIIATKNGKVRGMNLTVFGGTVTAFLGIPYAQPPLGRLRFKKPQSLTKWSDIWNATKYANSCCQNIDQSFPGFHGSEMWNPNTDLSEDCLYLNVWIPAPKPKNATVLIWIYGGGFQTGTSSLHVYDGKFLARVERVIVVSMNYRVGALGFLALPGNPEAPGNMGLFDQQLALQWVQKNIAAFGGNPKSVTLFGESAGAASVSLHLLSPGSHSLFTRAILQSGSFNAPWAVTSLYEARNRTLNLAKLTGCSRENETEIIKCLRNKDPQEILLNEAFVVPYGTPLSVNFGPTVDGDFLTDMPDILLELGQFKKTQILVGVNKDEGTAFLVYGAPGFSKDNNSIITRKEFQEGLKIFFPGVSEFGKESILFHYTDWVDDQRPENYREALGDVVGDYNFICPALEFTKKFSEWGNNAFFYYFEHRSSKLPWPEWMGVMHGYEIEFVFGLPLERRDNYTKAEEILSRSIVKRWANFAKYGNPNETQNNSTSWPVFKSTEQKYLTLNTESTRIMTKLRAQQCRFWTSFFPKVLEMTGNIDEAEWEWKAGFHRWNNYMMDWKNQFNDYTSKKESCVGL
Sequence of Cholinesterases; ACHE & BCHE (Homo sapiens) (P06276 whole entry, looked up): as the sequence (P06276 whole entry) above
Sequence of Cholinesterases; ACHE & BCHE (Homo sapiens) (P22303 whole entry, looked up): as the sequence (P22303 whole entry) above

| Structure (SMILES) | Activity [1] [%] | IC50 [2] [nM] | further results |
| --- | --- | --- | --- |
| CCCCN(CCC1CCCCCC1)Cc1cc(OC(=O)N(C)C)c2ccccc2c1 | > 50 | 2.4 |  |
| CCCCN(CCCC1CCNc2ccccc21)CCC1CCCCCC1 (centres undefined) | > 50 | 54.8 | Activity [3]: 65% |
| CCCCN(CCc1c[nH]c2ccc(OC(=O)N(C)C)cc12)CCC1CCCCCC1 | > 50 | 6.9 |  |
| CCCCN(CCc1c(-c2ccccc2OC(=O)N(C)C)[nH]c2ccccc12)CCC1CCCCCC1 | > 50 | 5.4 |  |
| CCCCN1CCN(CCCC2CCCCCC2)C[C@@H]1Cc1c[nH]c2ccccc12 | > 50 | 5 | IC50 [4]: 10300 nM; Ratio IC50 [5]: > 1000 |
| CN(CCC1CCCCCC1)Cc1cccc2[nH]ccc12 | > 50 | 349 |  |
| CN(C)C1CCC(CCN(CCCc2c[nH]c3ccccc23)CCC2CCCCCC2)CC1 (stereo in doubt; 32b) [listing 1 of 2 here] | > 50 |  |  |
| CCCCN(CCc1c[nH]c2cc(OC(=O)N(C)C)ccc12)CCC1CCCCCC1 | > 50 |  | T1/2 [6]: 14.8 h |
| CN(CCC1CCCCCC1)Cc1c[nH]c2ccccc12 | > 50 | 60.4 | IC50 [7]: 25200 nM |
| CCCCN(CCc1c[nH]c2ccc(O)cc12)CCC1CCCCCC1 | > 50 | 33.5 | Activity [3]: 79% |
| CCCCN(CCCc1c[nH]c2ccccc12)CCC1CCC(N(C)C)CC1 (stereo in doubt; 33b) [listing 1 of 2 here] |  | 214 |  |
| CCCCN(CCOc1ccc2ccc(OC(=O)N(C)C)cc2c1)CCC1CCCCCC1 | > 50 | 11.7 |  |
| CCCCN(CCC1CCCCCC1)Cc1cc(O)c2ccccc2c1 | > 50 | 4.7 |  |
| CCCCN(CCCc1c[nH]c2ccccc12)CCC1CCC(N(C)C)CC1 (stereo in doubt; 33a) [listing 1 of 2 here] | > 50 |  |  |
| CN(C)c1ccc(/C=C/CN(CCCc2c[nH]c3ccccc23)CCC2CCCCCC2)cc1 | > 50 | 4.6 | Activity [3]: 54% |
| CCCCN(CCC1CCCCCC1)Cc1cn(OC(=O)N(C)C)c2ccccc12 | > 50 | 133 | IC50 [7]: 152 nM |
| CN(CCc1c[nH]c2ccccc12)CCC1CCCCCC1 | > 50 |  |  |
| CCCCN(CCCc1cc2ccccc2[nH]1)CCC1CCCCCC1 | > 50 | 4.7 | Activity [3]: 74% |
| CCCCN(CCC1CCCCCC1)Cc1c[nH]c2ncccc12 | > 50 | 83 | Activity [3]: 57% |
| c1ccc2c(CCNCCC3CCCCCC3)c[nH]c2c1 | > 50 | 31.5 |  |
| CCCCN(CCCc1c[nH]c2ccccc12)CCC1CCN(Cc2ccccc2)CC1 | > 50 | 29.3 | IC50 [7]: 7840 nM |
| CCCC[N+]([O-])(CCc1c[nH]c2ccccc12)CCC1CCCCCC1 (centres undefined) | > 50 | 107 | Activity [3]: 86% |
| CN1CCN(CCC2CCCCCC2)C[C@@H]1Cc1c[nH]c2ccccc12 | > 50 | 10.5 | Activity [3]: 39% |
| CCCCN(CCCc1c[nH]c2ccccc12)CCC1CCC(N(C)C)CC1 (stereo in doubt; 33b) [listing 2 of 2 here] | > 50 |  |  |
| CCCCN(CCc1c[nH]c2cc(O)ccc12)CCC1CCCCCC1 | > 50 |  | IC50 [7]: 70600 nM |
| CCCCN1CN(CCC2CCCCCC2)C[C@@H]1Cc1c[nH]c2ccccc12 | > 50 | 8.7 | IC50 [4]: 11000 nM; Ratio IC50 [5]: > 1000 |
| CCCCN(CCCc1c[nH]c2ccccc12)CCC1CCC(N(C)C)CC1 (stereo in doubt; 33a) [listing 2 of 2 here] |  | 205 |  |

| Structure (SMILES) | Activity [1] [%] | IC50 [2] [nM] | further results |
| --- | --- | --- | --- |
| CCCCN(CCC1CCCCCC1)CCC1CCc2ccccc21 (centres undefined) | > 50 | 6.5 |  |
| CN(C)C1CCC(CCN(CCCc2c[nH]c3ccccc23)CCC2CCCCCC2)CC1 (stereo in doubt; 32a) [listing 1 of 2 here] |  | 1.9 | IC50 [7]: 12600 nM |
| CN(C)C1CCC(CCN(CCCc2c[nH]c3ccccc23)CCC2CCCCCC2)CC1 (stereo in doubt; 32a) [listing 2 of 2 here] | > 50 |  |  |
| c1ccc2c(CCCN(CCC3CCCCCC3)CCC3CCCCC3)c[nH]c2c1 | > 50 | 4.9 |  |
| CCCCN(CCc1cn(C(=O)N(C)C)c2ccccc12)CCC1CCCCCC1 | > 50 | 0.87 |  |
| CCCCN(CCC1CCCCCC1)Cc1cc2ccccc2cc1OC(=O)N(C)C | > 50 | 2.2 |  |
| CCCCN(CCc1c[nH]c2c(O)cccc12)CCC1CCCCCC1 | > 50 |  | Activity [3]: 69% |
| CCCC[N+](C)(CCCc1c[nH]c2ccccc12)CCC1CCCCCC1 (centres undefined) | > 50 | 2.3 | IC50 [7]: 23200 nM |
| CCCCN(CCc1c[nH]c2c(OC(=O)C(C)C)cccc12)CCC1CCCCCC1 | > 50 |  | IC50 [7]: 1370 nM; T1/2 [6]: 15.2 h |
| CCCCN(CCCc1ccc2ccccc2c1)CCC1CCCCCC1 | > 50 | 5.1 | Activity [3]: 56% |
| CN(CCC1CCCCCC1)Cc1c(-c2nnn[nH]2)[nH]c2ccccc12 | > 50 | 929 |  |
| CN(CCC1CCN(Cc2ccccc2)CC1)Cc1c[nH]c2ccccc12 | > 50 | 1710 | IC50 [7]: 33900 nM |
| CCCCN(CCc1c[nH]c2ccccc12)CCC1CCCCCC1 | > 50 | 5 |  |
| CCCCN(CCCc1cccc2ccccc12)CCC1CCCCCC1 | > 50 | 1.9 |  |
| CCCCN(CCCc1c[nH]c2ccc(F)cc12)CCC1CCCCCC1 | > 50 | 6 |  |
| c1ccc2c(c1)CCC2CCN(CCCc1c[nH]c2ccccc12)CCC1CCCCCC1 (centres undefined) | > 50 | 6.3 |  |
| CCCCN(C)[C@@H](Cc1c[nH]c2ccccc12)CN(C)CCC1CCCCCC1 | > 50 | 3 | IC50 [4]: 23400 nM |
| CCCCN(CCC1CCCCCC1)Cc1c[nH]c2cc(C#N)ccc12 | > 50 | 83.7 |  |
| CCCCN[C@H](CNCCC1CCCCCC1)Cc1c[nH]c2ccccc12 | > 50 | 10.1 | IC50 [4]: 12400 nM |
| CCCCN(CCC1CCCCCC1)Cc1c[nH]c2cc(Br)ccc12 | > 50 | 3.6 |  |
| CCCCN(CCCc1c[nH]c2ccccc12)CCC1CCCCCC1 | > 50 | 2.4 |  |
| CCCCN(CCC1CCCCCC1)Cc1c[nH]c2ccccc12 | > 50 | 13.3 |  |
| CCCCN(CCc1c(-c2ccccc2O)[nH]c2ccccc12)CCC1CCCCCC1 | > 50 | 16.8 |  |
| CN(C)C1CCC(CCN(CCCc2c[nH]c3ccccc23)CCC2CCCCCC2)CC1 (stereo in doubt; 32b) [listing 2 of 2 here] |  | 4.1 | IC50 [7]: 8570 nM |
| CCCCN(CCC1CCCCCC1)Cc1cc2ccccc2cc1O | > 50 | 33.7 | IC50 [7]: 18600 nM |
| CCCCN(CCC1CCCCCC1)Cc1ccc(OC(=O)N(C)C)c2ccccc12 | > 50 | 1.9 | IC50 [7]: 101 nM |
| CCCCN(CCOc1cccc2c(OC(=O)N(C)C)cccc12)CCC1CCCCCC1 | > 50 | 5.8 | IC50 [7]: 47.9 nM |
